Results published in patent US6746990B2, “2-phenyl-substituted heterocyclic 1,3-ketoenols as herbicides and pesticides” (Bayer Aktiengesellschaft, priority 1995, dated 2004).

Columns and labels:
Format in all cases: in vivo
Veronica = test: Pre-emergence test, Veronica; conditions: application rate 250 g/ha, after three weeks
Protocol: (§1) Pre-emergence Test Solvent: 3 parts by weight of acetone Emulsifier: 1 part by weight of alkylaryl polyglycol ether To produce a suitable preparation of active compound, 1 part by weight of active compound is mixed with the stated amount of solvent, the stated amount of emulsifier is added and the concentrate is diluted with water to the desired concentration. Seeds of the test plants are sown in normal soil and, after 24 hours, watered with the preparation of the active compound. It is expedient to keep constant the amount of water per unit area. The concentration of the active compound in the preparation is of no importance, only the amount of active compound applied per unit area being decisive. After three weeks, the degree of damage to the plants is rated in % damage in comparison to the development of the untreated control. The figures denote: 0%=no action (like untreated control) 100%=total destruction

[1] = tested on: green rice leafhopper (Nephotettix cinticeps); test: Nephotettix test; conditions: after 6 days; active compound concentration 0.1%; rice seedlings dipped
Protocol: (§2) Solvent: 7 parts by weight of dimethylformamide
(§3) Emulsifier: 1 part by weight of alkylaryl polyglycol ether
(§4) To produce a suitable preparation of active compound, 1 part by weight of active compound is mixed with the stated amount of solvent and the stated amount of emulsifier, and the concentrate is diluted with water to the desired concentration.
Rice seedlings (Oryza sativa) are treated by being dipped into the preparation of active compound of the desired concentration and are infested with the green rice leafhopper (Nephotettix cinticeps) while the leaves are still moist.
After the specified period of time, the destruction in % is determined. 100% means that all the leafhoppers have been killed; 0% means that none of the leafhoppers have been killed.

Alopecurus [2] = test: Pre-emergence test, Alopecurus; conditions: application rate 250 g/ha, after three weeks
Protocol: as §1

soya beans [3] = test: Pre-emergence test, tolerance by soya beans; conditions: application rate 250 g/ha
Protocol: as §1

Echinochloa = test: Pre-emergence test, Echinochloa; conditions: application rate 250 g/ha, after three weeks
Protocol: as §1

Chenopodium = test: Pre-emergence test, Chenopodium; conditions: application rate 250 g/ha, after three weeks
Protocol: as §1

Digitaria = test: Pre-emergence test, Digitaria; conditions: application rate 250 g/ha, after three weeks
Protocol: as §1

[4] = tested on: greenhouse red spider mite (Tetranychus urticae); test: Tetranychus test (OP-resistant); conditions: after 13 days; active compound concentration 0.1%; infested bean shoots dipped
Protocol: Tetranychus Test (OP-resistant)
as §2, §3, §4
Bean shoots (Phaseolus vulgaris) which are severely infested with the greenhouse red spider mite (Tetranychus urticae) are dipped into a preparation of the active compound of the desired concentration.
After the specified period of time, the destruction in % is determined. 100% means that all the spider mites have been killed; 0% means that none of the spider mites have been killed.

Alopecurus [5] = test: Post-emergence test, Alopecurus; conditions: application rate 125 g/ha, after three weeks
Protocol: (§5) Post-emergence Test Solvent: 5 parts by weight of acetone Emulsifier: 1 part by weight of alkylaryl polyglycol ether To produce a suitable preparation of active compound, 1 part by weight of active compound is mixed with the stated amount of solvent, the stated amount of emulsifier is added and the concentrate is diluted with water to the desired concentration. Test plants which have a height of 5-15 cm are sprayed with the preparation of the active compound in such a way as to apply the particular amounts of active compound desired per unit area. The concentration of the spray liquor is so chosen that the particular amounts of active compound desired are applied in 2000 l of water/ha. After three weeks, the degree of damage to the plants is. rated in % damage in comparison to the development of the untreated control. The figures denote: 0%=no action (like untreated control) 100%=total destruction

soya beans [6] = test: Post-emergence test, tolerance by soya beans; conditions: application rate 125 g/ha
Protocol: as §5

Setaria = test: Post-emergence test, Setaria; conditions: application rate 125 g/ha, after three weeks
Protocol: as §5

Avena fatua = test: Post-emergence test, Avena fatua; conditions: application rate 125 g/ha, after three weeks
Protocol: as §5

maize = test: Pre-emergence test, tolerance by maize; conditions: application rate 250 g/ha
Protocol: as §1

Abutilon = test: Pre-emergence test, Abutilon; conditions: application rate 250 g/ha, after three weeks
Protocol: as §1

Alopecurus myosuroides = test: Pre-emergence test, Alopecurus myosuroides; conditions: application rate 4000 g/ha, after three weeks
Protocol: as §1

[7] = tested on: Boophilis Microplus Resistant/SP-resistant Parkhurst Strain; test: Test with Boophilis Microplus resistant/SP-resistant Parkhurst strain; conditions: 20 μg/animal injected into the abdomen; adult females
Protocol: Test with Boophilis Microplus Resistant/SP-resistant Parkhurst Strain
Test animals: adult females which have sucked themselves full
Solvent: dimethyl sulphoxide
20 mg of active substance are dissolved in 1 ml of dimethyl sulphoxide, and lesser concentrations are prepared by dilution with the same solvent.
The test is carried out in 5 replications. 1 μl of the solutions is injected into the abdomen, and the animals are transferred into dishes and kept in a controlled-environment cabinet. The activity is determined via the inhibition of oviposition. 100% means that no tick has deposited eggs.

Beta vulgaris = test: Pre-emergence test, tolerance by Beta vulgaris; conditions: application rate 4000 g/ha
Protocol: as §1

**Q.** Which results are given for Cc1cc(C)c(C2=C(O)C3(CCC(C)CC3)NC2=O)c(C#N)c1 (single isomer, unassigned) [Example I-1-a-4]?
**A.** damage to Veronica (Veronica): 100%; destruction in % [1]: 100%; damage to Alopecurus (Alopecurus [2]): 100%; tolerance by soya beans (soya beans [3]): good tolerance; damage to Echinochloa (Echinochloa): 100%; damage to Chenopodium (Chenopodium): 100%; damage to Digitaria (Digitaria): 100%; activity (destruction in %) [4]: 100%

**Q.** Which results are given for CCc1cc(C#N)cc(C)c1C1=C(O)C2(CCC(C)CC2)NC1=O (single isomer, unassigned) [Example I-1-a-5]?
**A.** destruction in % [1]: 100%; damage to Alopecurus (Alopecurus [5]): at least 80%; tolerance by soya beans (soya beans [6]): good tolerance; damage to Setaria (Setaria): at least 80%; damage to Avena fatua (Avena fatua): at least 80%; activity (destruction in %) [4]: 100%

**Q.** What does the source list for Cc1cc(C#N)cc(C)c1C1=C(O)C2(CCC(C)CC2)NC1=O (single isomer, unassigned) [Example I-1-a-6]?
**A.** tolerance by maize (maize): good tolerance; damage to Abutilon (Abutilon): 80%; destruction in % [1]: 100%; activity (destruction in %) [4]: 100%

**Q.** For CC1CCC2(CC1)NC(=O)C(c1ccc(S(C)(=O)=O)cc1Cl)=C2O (stereo not drawn) [Example I-1-a-1], which destruction in % [1] is on record?
**A.** 100%

**Q.** What about the “damage to Alopecurus myosuroides” value (Alopecurus myosuroides) of the same molecule?
**A.** 80%

**Q.** What about the “activity (inhibition of oviposition)” value [7] of the same molecule?
**A.** 100%

**Q.** What about the “tolerance by Beta vulgaris” value (Beta vulgaris) of the same molecule?
**A.** good tolerance

**Q.** What does the source list for CCOC(=O)OC1=C(c2ccc(S(C)(=O)=O)cc2Cl)C(=O)NC12CCC(C)CC2 (stereo not drawn) [Example I-1-c-1]?
**A.** damage to Alopecurus myosuroides (Alopecurus myosuroides): 80%; tolerance by Beta vulgaris (Beta vulgaris): good tolerance
